Measured values: patent publication US11767307B2, “Litter for promoting pet's in-litter elimination” (SPECIALITES PET FOOD, priority 2018, dated 2023)

What was measured:
[1] = test system: cats; settings: 21 commercial cat attractants tested; cited from earlier work
[2] = test system: cat elimination behavior; experiment: Two-litter-box test of cat elimination behavior (deposits weight in litter); assay type: in vivo, cats; settings: measured on non-soiled litters the first day of use
Description: (§1) Twenty cats in 5 living rooms (4 cats per room) were involved in the study. The study lasted 4 days and two litter boxes containing two different products, i.e. a control cat litter (Litter 1, non-clumping clay) and an experimental cat litter (Litter 2) sprayed with 0.1% of composition A according to Example 1, were presented to the cats.
Diet was controlled for each test by measuring food intake. The temperature of the rooms was controlled. In each room, an equal proportion of males/females was respected.
as §1, with “study. Two” for “study. The study lasted 4 days and two”, “(Litter 3,” for “(Litter 1,”, “(Litter 4)” for “(Litter 2)”, “composition B” for “composition A”

| SMILES | preference by cats for urine elimination versus control [1] | in-litter cat elimination promoting (attractant) effect [2] |
| --- | --- | --- |
| CC(C)(CCO)SC[C@H](N)C(=O)O [L-Felinine] | significantly preferred |  |
| CC1(C)OCC(CO)O1 (centres unmarked) [composition A, 2,2-dimethyl-1,3-dioxolane-4-methanol] |  | in-litter cat elimination promoting (or attractant) effect |
